# Reference: publication PMC8486872, “A rational blueprint for the design of chemically-controlled protein switches” (Nature Communications, 2021)
# Values joined by “and” are separate entries in the source; they are usually repeats but may differ in a detail not shown here. Identical values can stand only once.
# Biological target: T1, LD3 in the presence of Drug-1 (Homo sapiens, UniProt Q07817, DEL45-84/F105I/R102E)
# T1 construct: 6xHis (N); made in house; host or cells: E. coli BL21(DE3)
# Test: SPR pre-screening and competition of Drug-1 resistant Bcl-XL mutants binding LD3
# Settings: Fig S10d
# Protocol: Supplementary Figure 10: Biophysical and cellular characterization of designed Drug-1- […]
# a) Pre-screening of Drug-1 resistant Bcl-XL mutants by SPR. 5 µM of Bcl-XL and five mutants were mixed with 10 µM of Drug-1 and injected over the LD3 immobilized chip to analyse the binding response. […]
# dilutions of Drug-1 were pre-mixed with 4 µM LD3 and injected over iBcl-XL_v3 immobilized chip to collect the response. c) Dissociation constant measurement of iBcl-XL_v3 and LD3. Sensorgrams are in black dashed curves and the fitted curves in solid red lines. Kd was using a 1:1 binding model. d) […]
# normalized to the positive control (DMSO group). […]
# T1 sequence (Q07817 with tags, fused parts or gaps DEL45-84/R102E/F105I limits assumed): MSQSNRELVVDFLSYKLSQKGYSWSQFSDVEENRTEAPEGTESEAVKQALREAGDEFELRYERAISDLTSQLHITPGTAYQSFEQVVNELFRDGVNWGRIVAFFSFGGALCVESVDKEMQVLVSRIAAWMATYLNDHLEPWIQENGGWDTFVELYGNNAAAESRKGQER
structure (smiles),measurement,setting,value
"CN(C)CC#Cc1ccc(OCCCc2sc(N3CCc4cccc(C(=O)Nc5nc6ccccc6s5)c4C3)nc2C(=O)O)c(F)c1 [Drug-1, A-1155463]",iBcl-XL_v3 response,Drug-1 0.001 nM,174.876 and 175.206 and 177.174
same,iBcl-XL_v3 response,Drug-1 0.01 nM,215.202 and 222.394 and 221.188
same,iBcl-XL_v3 response,Drug-1 0.05 nM,207.736 and 204.171 and 203.036
same,iBcl-XL_v3 response,Drug-1 0.1 nM,189.507 and 193.343 and 194.134
same,iBcl-XL_v3 response,Drug-1 0.5 nM,204.985 and 206.922 and 206.979
same,iBcl-XL_v3 response,Drug-1 1 nM,184.864 and 185.609 and 186.635
same,iBcl-XL_v3 response,Drug-1 10 nM,194.117 and 193.916 and 200.456
same,iBcl-XL_v3 response,Drug-1 50 nM,193.965 and 195.069 and 198.505
same,iBcl-XL_v3 response,Drug-1 100 nM,183.254 and 186.244 and 183.907
same,iBcl-XL_v3 response,Drug-1 500 nM,165.059 and 166.616 and 165.103
same,iBcl-XL_v3 response,Drug-1 1000 nM,154.762 and 156.9 and 154.341
same,IC50,"iBcl-XL_v3, best-fit, inhibitor vs. response (three parameters)",705 nM
same,logIC50,"iBcl-XL_v3, best-fit, three parameters, Drug-1 in nM",2.848
